How the values were obtained:
[1] = tested on: Collagen Induced Arthritis (CIA); assay: Rat CIA model; assay type: in vivo; conditions: therapeutic dosing day 16 to day 30, p.o., statistical significance in several of the readouts
Description: Completed Freund's adjuvant (CFA) and incomplete Freund's adjuvant (IFA) were purchased from Difco. Bovine collagen type II (CII), lipopolysaccharide (LPS), and Enbrel were obtained from Chondrex (Isle d'Abeau, France); Sigma (P4252, L'Isle d'Abeau, France), Whyett (25 mg injectable syringe, France) Acros Organics (Palo Alto, Calif.), respectively. All other reagents used were of reagent grade and all solvents were of analytical grade.
Dark Agouti rats (male, 7-8 weeks old) were obtained from Harlan Laboratories (Maison-Alfort, France). Rats were kept on a 12 hours light/dark cycle (0700-1900). The temperature was maintained at 22° C., and food and water were provided ad libitum.
One day before the experiment, CII solution (2 mg/mL) was prepared with 0.05 M acetic acid and stored at 4° C. Just before the immunization, equal volumes of adjuvant (IFA) and CII were mixed by a homogenizer in a pre-cooled glass bottle in an ice water bath. Extra adjuvant and prolonged homogenization might be required if an emulsion is not formed. 0.2 mL of the emulsion was injected intradermally at the base of the tail of each rat on day 1, a second booster intradermal injection (CII solution at 2 mg/mL in CFA 0.1 mL saline) was performed on day 9. This immunization method was modified from published methods (Sims N A et al., (2004) Targeting osteoclasts with zoledronic acid prevents bone destruction in collagen-induced arthritis, Arthritis Rheum. 50 2338-2346; Jou et al., 2005).
The therapeutic effects of the test compounds were tested in the rat CIA model. Rats were randomly divided into equal groups and each group contained 10 rats. All rats were immunized on day 1 and boosted on day 9. Therapeutic dosing lasted from day 16 to day 30. The negative control group was treated with vehicle (MC 0.5%) and the positive control group with Enbrel (10 mg/kg, 3× week, s.c.). A compound of interest was typically tested at 3 doses, e.g. 3, 10, 30 mg/kg, p.o.
Arthritis was scored according the method of Khachigian 2006, Lin et al 2007 and Nishida et al. 2004. The swelling of each of the four paws was ranked with the arthritic score as follows: 0-no symptoms; 1-mild, but definite redness and swelling of one type of joint such as the ankle or wrist, or apparent redness and swelling limited to individual digits, regardless of the number of affected digits; 2-moderate redness and swelling of two or more types of joints; 3-severe redness and swelling of the entire paw including digits; 4-maximally inflamed limb with involvement of multiple joints (maximum cumulative clinical arthritis score 16 per animal) (Nishida et al., 2004).
Clinically, body weight loss is associated with arthritis (Shelton et al., 2005; Argiles et al., 1998; Rall, 2004; Walsmith et al., 2004). […] The change in body weight (%) after onset of arthritis was calculated as follows: […]
X-ray photos were taken of the hind paws of each individual animal. A random blind identity number was assigned to each of the photos, and the severity of bone erosion was ranked by two independent scorers with the radiological Larsen's score system as follows: 0-normal with intact bony outlines and normal joint space; 1—slight abnormality with any one or two of the exterior metatarsal bones showing slight bone erosion; 2—definite early abnormality with any three to five of the exterior metatarsal bones showing bone erosion; 3—medium destructive abnormality with all the exterior metatarsal bones as well as any one or two of the interior metatarsal bones showing definite bone erosions; 4—severe destructive abnormality with all the metatarsal bones showing definite bone erosion and at least one of the inner metatarsal joints completely eroded leaving some bony joint outlines partly preserved; 5—mutilating abnormality without bony outlines. This scoring system is a modification from Salvcmini et al., 2001; Bush et al., 2002; Sims et al., 2004; Jou et al., 2005. […]

MMP13 in SW1353 cells = assay: OSM/IL-1β signaling assay (MMP13 levels in SW1353 cells); assay type: cell-based; conditions: Homo sapiens; SW1353 cells, OSM and IL-1β triggered, MMP13 levels 48 hours after triggering; read-out: MMP13 EC50;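 further: secreted MMP13 captured by antibody, activated with APMA and its activity read by fluorescence, inhibition scaled between vehicle-treated triggered wells (0%) and untriggered wells (100%)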
[2] = target: Recombinant human TYK2 catalytic domain (Homo sapiens (Human), UniProt P29597); assay: TYK2 inhibition assay; assay type: biochemical; conditions: semi-quantitative score
Chain of Recombinant human TYK2 catalytic domain (P29597 871-1187): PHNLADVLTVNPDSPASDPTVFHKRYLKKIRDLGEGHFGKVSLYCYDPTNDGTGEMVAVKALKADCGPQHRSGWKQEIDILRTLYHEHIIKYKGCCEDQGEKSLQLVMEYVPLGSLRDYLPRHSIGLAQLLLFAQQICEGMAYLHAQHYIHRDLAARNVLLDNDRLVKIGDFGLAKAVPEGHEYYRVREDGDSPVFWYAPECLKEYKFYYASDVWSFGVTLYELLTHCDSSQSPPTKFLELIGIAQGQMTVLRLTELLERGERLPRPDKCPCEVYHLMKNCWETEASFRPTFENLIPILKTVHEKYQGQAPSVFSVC
How it was run: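 Recombinant human TYK2 catalytic domain; radiometric kinase reaction run 90 min at 30° C, stopped with phosphoric acid, washed and counted by scintillation.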

[3] = target: Recombinant human JAK2 catalytic domain (Homo sapiens (Human), UniProt O60674); assay: JAK2 inhibition assay; assay type: biochemical; conditions: semi-quantitative score
Chain of Recombinant human JAK2 catalytic domain (O60674 808-1132): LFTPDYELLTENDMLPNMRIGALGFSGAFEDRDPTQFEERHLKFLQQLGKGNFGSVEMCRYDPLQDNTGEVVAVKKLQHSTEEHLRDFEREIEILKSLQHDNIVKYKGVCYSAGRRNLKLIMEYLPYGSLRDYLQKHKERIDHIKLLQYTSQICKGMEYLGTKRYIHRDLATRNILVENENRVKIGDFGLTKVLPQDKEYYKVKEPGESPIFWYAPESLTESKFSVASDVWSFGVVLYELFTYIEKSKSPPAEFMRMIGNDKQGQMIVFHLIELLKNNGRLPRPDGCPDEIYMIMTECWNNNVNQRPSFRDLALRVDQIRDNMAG
How it was run: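 Activity was taken as vehicle cpm minus cpm with 10 μM staurosporine, and inhibition was expressed on that scale. Incubation was 90 min at 30 °C, followed by acid quench, phosphoric acid washes and Microscint counting. Compounds were tested as dose series to obtain IC50.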

[4] = tested on: Collagen antibody-induced arthritis; assay: MAB model (collagen antibody-induced arthritis); assay type: in vivo, mouse; conditions: 30 mg/kg p.o., DBA/J mice
Description: The MAB model allows a rapid assessment of the modulation of an RA-like inflammatory response by therapeutics ([…]. Nature Protocols (2006) 2512-2516: Collagen antibody-induced arthritis). DBA/J mice were injected i.v. with a cocktail of mAbs directed against collagen II. One day later, compound treatment was initiated (vehicle: 10% (v/v) HPβCD). Three days later, mice received an i.p. LPS injection (50 μg/mouse), resulting in a fast onset of inflammation. Compound treatment was continued until 10 days after the mAb injection. Inflammation was read by measuring paw swelling and recording the clinical score of each paw. The cumulative clinical arthritis score of four limbs was presented to show the severity of inflammation. A scoring system is applied to each limb using a scale of 0-4, with 4 being the most severe inflammation. • 0 Symptom free • 1 Mild, but definite redness and swelling of one type of joint such as the ankle or wrist, or apparent redness and swelling limited to individual digits, regardless of the number of affected digits • 2 Moderate redness and swelling of two or more types of joints • 3 Severe redness and swelling of the entire paw including digits • 4 Maximally inflamed limb with involvement of multiple joints

Structure (SMILES) | EC50 (MMP13 in SW1353 cells) | IC50 [3] | efficacy in all readouts of the rat CIA study [1] | IC50 [2] | clinical score [4] | inflammation [4]
CC1CCCN(C(=O)c2ccc(-c3cccc4nc(NC(=O)C5CC5)nn34)cc2)C1 (stereo not drawn) [Compound 145, N-(5-(4-(3-methylpiperidine-1-carbonyl)phenyl)-[1,2,4]triazolo[1,5-a]pyridin-2-yl)cyclopropanecarboxamide] | > 1000 nM |  | efficacious in all readouts |  |  | 
N#Cc1ccc(COc2ccc(-c3cccc4nc(NC(=O)C5CC5)nn34)cc2)cn1 [Compound 176, N-(5-(4-((6-cyanopyridin-3-yl)methoxy)phenyl)-[1,2,4]triazolo[1,5-a]pyridin-2-yl)cyclopropanecarboxamide] | 1 to 500 nM | < 100 nM | efficacious in all readouts | < 100 nM | reduced the clinical score with statistical significance | significantly reduced inflammation

Second part, led by results:

EC50 (MMP13 in SW1353 cells) | IC50 [3] | Structure (SMILES) | efficacy in all readouts of the rat CIA study [1] | IC50 [2] | clinical score [4] | inflammation [4]
> 1000 nM | > 1000 nM | O=C(Nc1nc2cccc(-c3ccc(CN4CCOCC4)cc3)n2n1)C1CC1 [Compound 18, N-(5-(4-(morpholinomethyl)phenyl)-[1,2,4]triazolo[1,5-a]pyridin-2-yl)cyclopropanecarboxamide] | efficacious in all readouts | > 1000 nM |  | 
> 1000 nM | 101 to 500 nM | CC1CN(C(=O)c2ccc(-c3cccc4nc(NC(=O)C5CC5)nn34)cc2)CC(C)O1 (stereo not drawn) [Compound 215, Cyclopropanecarboxylic acid {5-[4-(2,6-dimethyl-morpholine-4-carbonyl)-phenyl]-[1,2,4]triazolo[1,5-a]pyridin-2-yl}-amide] | efficacious in all readouts |  |  | 
501 to 1000 nM | 101 to 500 nM | CC1(C)CN(C(=O)c2ccc(-c3cccc4nc(NC(=O)C5CC5)nn34)cc2)C1 [Compound 330, Cyclopropanecarboxylic acid (5-[4-(3,3-dimethyl-azetidine-1-carbonyl)-phenyl]-[1,2,4]triazolo[1,5-a]pyridin-2-yl}-amide] | efficacious in all readouts |  |  | 
